These results are taken from US8357501B2, “Tissue protective erythropoietin receptor (NEPOR) and methods of use” (Molecular Health GmbH, priority 2007, dated 2013).

For data set [1] the following is noted: 351 patients receiving radiotherapy; 3 times per week, from 10 to 14 days before and through radiation therapy; placebo 15%; cited from earlier work.
For data set [2], the system named is EphB4 expression in the transiently transfected 293T cell line. The data set can be described thus: EphB4 knockdown by antisense ODN in transiently transfected cells. In kind it is cell-based. As to conditions: cytosine at the CpG site methylated, compared with AS-10; data not shown.
The next data set deals with tissue injury. The conditions noted are these: wide variety of in vivo and in vitro models, cited from earlier work.
The next data set concerns erythropoiesis. As to conditions: cited from earlier work.
A further data set concerns HeyA8-MDR cells. The data set can be described thus: EPH-B4 siRNA effect on tumor promoting effect of EPO in nude mice (FIG. 17). In kind it is in vivo. As to conditions: HeyA8 MDR i.p. The procedure:
Female nude mice were injected i.p. with 1×10^6 HeyA8-MDR cells. Day eight following injection the cells were treated with control siRNA-DOPC, EPH-B4 siRNA-DOPC, EPO, or in EPO+ control or EPH-B4 siRNA-DOPC (10 per group). (50 U EPO given 3× week, 5 μg siRNA 2× week). Mice were sacrificed on day 25 and tumor weights were measured. Statistics were done using students T-test. B) Distribution of tumor weight per group.
In these experiments we sought to determine the response to erythropoietin (EPO) treatment in a panel of ovarian cancer cell lines. […] It was then necessary to determine protein expression of these receptors in the panel. […] We then categorized these expression changes particularly with regard to the EPOR and EPH-B4 to then analyze the response to EPO treatment. We analyzed their response to chemotherapy in conjunction with EPO. […] It was then necessary to analyze the activation of signaling pathways known to be activated by these receptors in response to EPO treatment. Three cell lines were starved for two hours to isolate their response to EPO. […] We then sought to determine a EPO dose that optimized its tumor promoting effect in vivo. Female nude mice were injected i.p. with HeyA8 MDR (positive for both EPOR and EPH-B4). […] Treatment continued until tumors became evident, the mice were then sacrificed and the tumor weight was determined. […]

Like-named read-outs stand apart in the source and are kept apart here. [5mC] = 5-methylcytosine

For the substance “epoetin beta: EPO in the form of epoetin beta, NeoRecormon from Roche”, the “patients with increased haemoglobin levels” value in data set [1] is listed as 82%.
With “AS-10M: antisense ODN AS-10 with the cytosine at the CpG site methylated (ATGGAGGCCTCGCTCAGAAA; DNA, [5mC] at 11, backbone and methylation of C not given here; listed as Homo sapiens)”, the EphB4 knockdown efficiency entry in data set [2] is given as “without any loss”.
Turning to “CEpo: carbamylated Epo, does not stimulate erythropoiesis (Leist et al.)”, the “tissue injury / neuroprotection” value in the data set on tissue injury is on record as “prevents”; with tissue injury (listed as carbamylated EPO), “neuroprotective”. The “stimulation of erythropoiesis / haematopoiesis” value is reported as “does not stimulate” with erythropoiesis and “fail to induce haematopoiesis” in the data set on erythropoiesis (listed as carbamylated EPO).
With “EPH-B4 siRNA: siRNA specific to EPH-B4, sense 5′CAGCCAAUAGCCACUCUAA3′ (SEQ ID NO: 266), antisense 5′UUAGAGUGGCUAUUGGCUG3′ (SEQ ID NO: 267) (listed as RNA, chemistry not given here; listed as Homo sapiens)”, the “EPO induced tumor growth” value in the data set on HeyA8-MDR cells (siRNA 5 μg 2× week in conjunction with EPO 50 U 3× week) was “completely abrogated”. Besides, the tumor growth result in the data set on HeyA8-MDR cells (siRNA alone, 5 μg siRNA 2× week from day eight) is “decrease”.
